Measured values: patent US9594047B2, “Potentiometric sensors and method for measuring intermolecular interactions” (Universiteit Antwerpen, priority 2013, dated 2017)

Assays:
[1] = Potentiometric sensorgram of an oligonucleotide analyte; details: 10^−5 M injection
Text: Coating materials such as gelatin are easily doped by proteins [see De Wael, K.; De Belder, S.; Van Vlierberghe, S.; Van Steenberge, G.; Dubruel, P. Talanta 82 (2010) 1980-1985] antibodies, bioparticles (viruses, bacteria, . . . ), DNA, and aptamers. Large biomolecules can be used as analyte (prey ligand) (second molecular species). From experience with oligonucleotides [Nagels, L. J.; Everaert, J.; Bohets, H.; Del Favero, J.; Goossens, D.; Robbens, J.; Pietraszkiewicz, M.; Pietraszkiewicz, O., Comb. Chem. High Throughput Screening 10 (2007) 555-559] it is known that these multiply charged molecules give very good potentiometric responses. For example, the 22-mer 5′-[…]-3′ yields a slope (S, equations 2 and 3) value of 38 mV per decade, which is much higher than that calculated by the Nernst equation (equation 2). This is due to the fact that equation 2 was derived for point charges, while an oligonucleotide is a multiply charged rodlike molecule. It is detected three times more sensitively (on a molar basis) than a small, well-responding anionic molecule such as maleic acid. […] This means that the described method can also be used to measure DNA/DNA interactions. Potentiometry also allows working with miniaturized electrode arrays (eventually with ion-sensitive field-effect transistor (ISFET) readout), which means that high-throughput measurements can be considered.

[2] = molecular target: DA-specific aptamer; details: read-out: Kdiss determined colorimetrically; Zheng (2011); cited from earlier work
[3] = test system: DA-specific aptamer (58 mer); test: Potentiometric FIA sensorgram, gelatin B sensor with covalently linked DA-specific aptamer; format: binding; details: for Rmax response in mV: 10^−5M injection, coating Gelatin B + DA-specific aptamer; for change in sensitivity (Rmax) when aptamer is coupled to gelatin B: with versus without aptamer
Text: (§1) [formula] Starting from the “association” part of the sensorgram, one can now plot dR/dt versus R. For a pseudo-first-order kinetics, this will yield a straight line with slope equal to slope=−(koncanalyte+koff) (12) Plotting this slope versus canalyte then yields a graph from which kon and koff can be calculated.
(§2) From kon and koff, Kassoc=kon/koff is obtained, from which Kdiss (=1/Kassoc) and the Gibbs free energy of interaction can be calculated (ΔG^0=−RT ln Kass). Kdiss is most frequently used term to express intermolecular interactions. This type of analysis was done for different electrode/analyte combinations. Examples were chosen so as to include examples where the immobilized component (in the coating layer of the sensor) includes large biomolecules (DNA).
(§3) The flow injection analysis (FIA) recordings were performed using an LC-10ADvp pump (Shimadzu Liquid Chromatography) and a Rheodyne 7125 six-port external sample injector (VICI, Houston, Tex.). A 1.00 mL sample loop was used to generate square concentration pulses for sensorgram recording in FIA conditions. […] The flow rate was 1.00 mL min^−1. Poiseuille peak broadening effects were kept to a minimum using short injector-detector connections (150 mm). To avoid such effects at the end of the square concentration pulse, the injector was switched from inject to load after 40 s (well before the sample loop volume was totally emptied).
The well-known ethyl-dimethyl-aminopropylcarbodiimide and n-hydroxy-succinimide (EDC-NHS) coupling procedure was used (with minor modifications) to bind the aminated aptamer covalently to the hydrogel, which contains carboxyl groups. After adding 20 μL of the coupling agents (15.32 mg of EDC and 2.32 mg of NHS dissolved in 100 μl of 10.0 mM MES buffer at pH 7.0) to the coated hydrogel for 2 h, 2×4 μL of the aptamer (10^−4M) was applied for 1 h. After evaporation for 2 h, at 4° C. the electrodes were kept in 10.0 mM MES running buffer, pH 7.0.
All chemicals were of analytical reagent grade. The FIA eluents were prepared daily by the dilution of a concentrated phosphoric acid solution or by dissolving HEPES, both obtained from Acros Organics (Filter Service NV, Eupen, Belgium). High-molecular-mass PVC was obtained from Janssen Chimica (Beerse, Belgium). The other membrane components were of the highest quality grade available from Fluka (Sigma-Aldrich, Bornem, Belgium). These include plasticizer TCPB, DOS, and the solvent tetrahydrofuran (THF). Type gelatin A (IEP (isoelectric point)=8.8, bloom strength 202), isolated from porcine skin by acid treatment, was obtained from Tessenderlo Chemie (Belgium). Promazine, lidocaine and tartaric acid were obtained from Sigma-Aldrich.
After checking the coupling of the aptamer to the biopolymer as described above, the electrodes were placed in a FIA potentiometric setup.
(§4) A R=10^mV/S−1 conversion was then plotted (see equation 4). […] Four electrodes were tested, each 3 injections.

[4] = test system: Gelatin B; test: Potentiometric FIA response on gelatin B-coated electrode without aptamer (negative control sensor); format: binding; details: for Rmax response in mV: 10^−5M injection, coating Gelatin B
Description: as §4

[5] = Potentiometric FIA sensorgram, linearization method, rubber phase (PVC) coated sensor; format: binding; details: for koff: from plot of slope versus canalyte (on phase kinetics); for kon: from plot of slope versus canalyte, eluent 5.0 mM H3PO4 pH 2.4
Text: The model is based on the assumption that the rate determining phenomenon is the adsorption of analyte A (second molecular species) to the surface receptor sites Rsurface: A+Rsurface⇄ARsurface (5) Receptor sites are occupied by the analyte are designated as Roccupied. The rate of adsorption can be expressed as νon: […]
Differential equation 6 can be solved to yield equations 8 and 10. In these equations, Roccupied is replaced by R, the concentration-related response (10^mV/S−1), as both are linearly related (see above). Rmax is the value of R which is obtained at the plateau of the sensorgram: R(t)=Rmax(1−e^−k^obsd^t) (8) where kobsd=[…] (9) Equation 7 yields the well-known first-order exponential desorption formula: R(t)=Rmaxe^−k^off^t (10)
as §1, §2, §3
The eluent was 5.0 mM H3PO4 (pH 2.4) for the poly(vinyl chloride) (PVC)-based electrodes and 0.5 mM 4-(2-hydroxyethyl)-1-piperazine-ethanesulfonic acid (HEPES; pH 6.0) for the hydrogel electrodes (see the section “Potentiometric Electrode”). The column outlet was directed perpendicularly toward the sensitive membrane of the coated wire electrode in a “wall-jet” flow cell [see FIG. 1 and Bazylak, G.; Nagels, L. J. J. Pharm. Biomed. Anal. 32 (2003) 887-903]. The distance from the LC tubing outlet to the electrode was 0.100 mm unless otherwise stated.
The membrane potential was measured against an Orion 800500 Ross reference electrode (Ag/AgCl) using a high impedance (10^13Ω) home-made amplifier. The detection signals were recorded on a data station composed of a PC equipped with a 6013 NI DA converter and LabVIEW 7 (National Instruments, Austin, Tex.) based software. The overall RC time constant of the high-impedance amplifier plus data station was set to 0.200 s.
Electrodes with a composite substrate have the important property that the membrane coating and the composite are tightly mixed at the interface, and sensors constructed in this way show very good impedance characteristics (see Nagels, L; Bohets, H.; Jimidar, M. U.S. Pat. No. 7,857,962 B2). These characteristics were verified using impedance spectroscopy. The measurements were performed with an Autolab Metrohm PGSTAT 128N FRA instrument (frequency 1-100 kHz, amplitude 10 mV). A semicircle in the Nyquist plot was obtained if the electrode had good impedance characteristics. Discussions on such characteristics of potentiometric sensors are well described in Mattinen, U.; Rabiej, S.; Lewenstam, A.; Bobacka, J. Electrochim. Acta 56 (2011) 10683-10687; and Bobacka, J.; Ivaska, A.; Lewenstam, A. Chem. Rev. 108 (2008) 329-351. […]

[6] = cited from earlier work
[7] = test system: gelatin A coating (collagen material); test: Potentiometric FIA sensorgram, linearization method, gelatin A-coated sensor; format: binding, porcine
Text: as §1, §2
The flow injection analysis (FIA) recordings were performed using an LC-10ADvp pump (Shimadzu Liquid Chromatography) and a Rheodyne 7125 six-port external sample injector (VICI, Houston, Tex.). A 1.00 mL sample loop was used to generate square concentration pulses for sensorgram recording in FIA conditions. […] The flow rate was 1.00 mL min^−1. Poiseuille peak broadening effects were kept to a minimum using short injector-detector connections (150 mm). […]

| Compound | Rmax response in mV [3] [mV] | change in sensitivity (Rmax) when aptamer is coupled to gelatin B [3] | Rmax response in mV [4] [mV] | sensitivity of gelatin B based sensors [4] | Kassoc=kon/koff [5] [M⁻¹] | koff [5] [s⁻¹] | kon [5] [M⁻¹ s⁻¹] | further results |
| --- | --- | --- | --- | --- | --- | --- | --- | --- |
| 5′-AAAATATCATCTTTGGTGTTTC-3′ (chemistry not given here) [22-mer oligonucleotide used as analyte] | – | – | – | – | – | – | – | koff ([1]; off phase): 0.032 s⁻¹; kobsd ([1]; on phase): 0.055 s⁻¹ |
| NCCc1ccc(O)c(O)c1 [Dopamine, dopamine] | 92.86 | very clear increase in Rmax | 9.46 | – | – | – | – | Kd [2]: 0.7 µM; Kass [3]: 3.04e+07 M⁻¹; koff [3]: 0.0007 s⁻¹; kon [3]: 21200 M⁻¹ s⁻¹; signal (Rmax) with aptamer-containing electrodes versus electrodes without aptamer ([3]; four electrodes, each 3 injections): From five to ten times higher signals; Kd ([3]; mean of four electrodes, read-out: mean value of Kdiss): 1.31 µM |
| CCN(CC)CC(=O)Nc1c(C)cccc1C [Lidocaine, lidocaine] | 1.57 | no improvement in sensitivity | 2.88 | quite insensitive | 275000 | 0.0717 | 19700 | average value of koff ([5]; off phase, all curves at different concentrations): 0.0748 s⁻¹ |
| CN(C)CCCN1c2ccccc2Sc2ccccc21 [Promazine] | 2.44 | no improvement in sensitivity | 3.66 | quite insensitive | 2.74e+06 | 0.0365 | 100000 | log P [6]: 4.36 |
| CC(NCCc1ccc(O)cc1)C(O)c1ccc(O)cc1 (stereo not drawn) [Ritodrine, ritodrine] | 1.57 | no improvement in sensitivity | 1.83 | quite insensitive | – | – | – | – |
| O=C(O)C(O)C(O)C(=O)O (stereo not drawn) [tartaric acid] | – | – | – | – | – | – | – | koff [7]: 0.0472 s⁻¹; kon ([7]; from plot of slope versus canalyte, 0.5 mM HEPES pH 6.0): 66700 M⁻¹ s⁻¹ |
